Entries after “also recorded” stand apart in the source; their conditions may differ.
Legend:
[1] = test system: BxPC-3 pancreatic cancer xenografts; assay: Antitumor activity against BxPC-3 xenografts in scid mice; assay type: in vivo; conditions: 125 mg/kg i.p. twice a day for 5 days
Panc-1 = assay: Morphologic apoptosis assay in Panc-1 cells; assay type: cell-based, Human
[2] = Preliminary single-dose toxicity, i.p.; assay type: in vivo; conditions: single doses up to 250 mg/kg i.p.; preliminary studies
PH domain of PDK1 [3] = molecular target: T1, PH domain of PDK1 (Homo sapiens, UniProt O15530); assay: SPR competitive binding
T1 sequence (O15530 459-550 limits assumed): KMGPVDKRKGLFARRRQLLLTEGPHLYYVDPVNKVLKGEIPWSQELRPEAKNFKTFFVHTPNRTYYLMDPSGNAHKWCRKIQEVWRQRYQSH

phospho-Ser^241-PDK1 = assay: Western analysis of phospho-Ser241-PDK1 in BxPC-3 cells; assay type: cell-based, Human; conditions: at higher concentrations
PH domain of PDK1 [4] = molecular target: T1, PH domain of PDK1; assay: SPR direct binding to PDK1 PH domain
GSK3β and p70S6K = assay: Western analysis of AKT downstream targets in BxPC-3 cells; assay type: cell-based, Human; conditions: Western blot
MiaPaCa-2 = assay: Morphologic apoptosis assay in MiaPaCa-2 cells; assay type: cell-based, Human

CCCCCCCCCCCCc1ccc(S(=O)(=O)Nc2nncs2)cc1 [Compound 27, 4-dodecyl-N-(1,3,4-thiadiazol-2-yl) benzenesulfonamide]
Antitumor activity [1]: significant antitumor activity with cessation of tumor growth and even regression; also recorded: complete cessation of tumor growth and even some regression
Apoptosis at 20 μmol/L (Panc-1): 40.0 ± 2.9%
Toxicity of single doses [2]: no toxicity
Ki (PH domain of PDK1 [3]): 5.5 µM
Effect on phosphorylation of PDK1 on Ser241 (in words) (phospho-Ser^241-PDK1): slightly affected
Kd (PH domain of PDK1 [4]): 90.1 µM
Effect on GSK3β and p70S6K phosphorylation (in words) (GSK3β and p70S6K): inhibited in a dose-dependent manner
Apoptosis at 20 μmol/L (MiaPaCa-2): 31.3 ± 1.6%
